Measurements as given in patent publication US12479834B2, “Phenol compound or salt thereof” (TAIHO PHARMACEUTICAL CO., LTD., priority 2019, dated 2025).

Tests used:
KRAS G12C mutant = molecular target: T1, KRAS G12C mutant (Homo sapiens, UniProt P01116, G12C); test: Inhibition of SOS1-mediated nucleotide (GDP-GTP) exchange reaction of KRAS G12C mutant, BODIPY FL GDP fluorescence; format: biochemical; conditions: preincubated 25° C. 4 hours with 25 nM KRAS G12C bound with BODIPY FL GDP; SOS1 100 nM, GppNHp 1 μM, 30 minutes
T1 construct: 50 μM G12C K-Ras4B (1-169) protein and 1 mM BODIPY® FL GDP; His tag (N, cleaved yes); made in house; host or cells: E. coli BL21 (DE3)
Excerpt: (§1) SOS1 protein was expressed in E. coli strain BL21 (DE3) by synthesizing a nucleotide sequence encoding the amino acid sequence represented by GenPept ID NP_005624 as a sequence optimized for E. coli by use of GeneArt Technology (Life Technologies Corp.) such that the protein was N-terminally His-tagged and fused with a TEV protease recognition sequence (ENLYFQG). The expressed His-tagged SOS1 (564-1049) was purified through a Ni column, then cleaved at its tag with N-terminally His-tagged TEV protease, and passed through a Ni column again to recover a flow-through fraction to obtain the protein.
Each compound was studied for its inhibitory effect on the exchange reaction of GDP into GppNHp in BODIPY® FL bound with the KRAS G12C mutant by fluorescence measurement using the G12C K-Ras4B (1-169) protein and the SOS1 protein.
For the preparation of the KRAS G12C mutant bound with BODIPY® FL GDP, first, 50 μM G12C K-Ras4B (1-169) protein and 1 mM BODIPY® FL GDP (Invitrogen Corp., G22360) were incubated for 1 hour in a buffer solution (20 mM Tris-HCl (pH 7.5), 50 mM NaCl, and 1 mM DTT) in ice in the presence of 2.5 mM EDTA. Then, MgCl2 was added thereto at a final concentration of 10 mM, then the mixture was incubated at room temperature for 30 minutes, and then, the protein was passed through a NAP-5 column for removal of free nucleotides and used for compound evaluation.
For the measurement of the inhibitory activity of compounds against nucleotide exchange reaction, first, the compound of the present invention was serially diluted with DMSO. Subsequently, the serially diluted solution of the compound of the present invention in DMSO (final concentration of DMSO: 5%) and the KRAS G12C mutant (25 nM) bound with BODIPY® FL GDP were added into a reaction buffer solution (20 mM Tris-HCl (pH 7.5), 100 mM NaCl, 1 mM MgCl2, 2 mM DTT, and 0.1% Tween 20), and the mixture was preincubated at 25° C. for 4 hours. Then, Son of Sevenless Homolog 1 (SOS1, amino acid region: 564-1049) and GppNHp (GMPPNP, Jena Bioscience GmbH, NU-401-50) were added thereto at final concentrations of 100 nM and 1 μM, respectively, and the mixture was reacted for 30 minutes. The change in fluorescence intensity of BODIPY® FL (excitation wavelength: 485 nm, fluorescence wavelength: 520 nm) between immediately after the start of reaction and after 30 minutes from the start of reaction was standardized, and then, the compound concentration at which 50% inhibition was achieved was calculated as IC50 (nM) when the signal value for only DMSO was defined as 0% inhibition and the signal value for no addition of GppNHp was defined as 100% inhibition.

G12C K-Ras4B (1-169) = molecular target: T2, G12C K-Ras4B (1-169) (Homo sapiens, UniProt P01116, G12C); test: Binding to KRAS G12C mutant, compound binding rate by LC-MS; conditions: final compound concentration 2 μM, 1 μM protein, 2 hours at 25° C.
T2 construct: G12C K-Ras4B (1-169) protein, which was a KRAS G12C mutant; His tag (N, cleaved yes); made in house; host or cells: E. coli BL21 (DE3)
Excerpt: as §1, with “K-Ras4B (1-169)” for “SOS1”, “NP_004976” for “NP_005624”, “K-Ras4B (1-169)” for “SOS1 (564-1049)”, “fraction, which was further purified by anion-exchange chromatography” for “fraction”, “protein. G12C K-Ras4B (1-169) protein, which was a KRAS G12C mutant, was obtained in the same way as in the K-Ras4B(1-169) protein except that glycine at position 12 of the amino acid sequence represented by GenPept ID NP_004976 was mutated to cysteine.” for “protein.”
The K-Ras4B (1-169) protein and the G12C K-Ras4B (1-169) protein were mixed and diluted with a buffer solution (1×TBS and 0.1 mM TCEP) to prepare a protein solution containing 1 μM each of the proteins. Each test compound was dissolved at 10 mM in DMSO and further diluted 10-fold with DMSO to make a 1 mM solution. Then, the solution was diluted 5-fold with DMSO to make a 200 μM solution. The 200 μM solution was further diluted 5-fold to make a […] solution. 1 μL of the 40 μM test compound was added to 19 μL of the 1 μM protein solution such that the final compound concentration was 2 μM. The mixture was stored for 2 hours in an incubator of 25° C., and the reaction was terminated by the addition of 80 μL of a 1×TBS solution containing 0.2% formic acid, followed by LC-MS measurement.
The LC-MS measurement was performed by using Xevo G2-S Q-Tof manufactured by Waters Corp., performing reverse-phase chromatography with a desalting column, and obtaining mass spectra of positive ions by electrospray. For the mass spectra, spectra of polyvalent ions were collectively converted to molecular weights by the MaxEnt technique using OpenLynx software, and then, a compound binding rate was obtained from the ratio of […].
The binding rates of test compounds having a final compound concentration of 2 μM for G12C K-Ras4B (1-169) are shown in the table below. The binding rate for G12C K-Ras4B (1-169) is rated “A” for 80% or more, “B” for 60% or more and less than 80%, “C” for 40% or more and less than 60%, “D” for 20% or more and less than 40%, and “E” for less than 20%.

Row | SMILES | IC50 (KRAS G12C mutant) [nM] | binding rate for G12C K-Ras4B (1-169) (G12C K-Ras4B (1-169))
1 | C=CC(=O)N1CC(NC(=O)c2cnc(CNc3nc(C(C)(C)C)c(Cl)cc3O)n2C)C1 [Example 83, N-(1-Acryloylazetidin-3-yl)-2-(((6-(tert-butyl)-5-chloro-3-hydroxypyridin-2-yl)amino)methyl)-1-methyl-1H-imidazole-5-carboxamide] | 23 | B (60% or more and less than 80%)
2 | C=CC(=O)N1CC(NC(=O)c2ccc(CNc3cc(C(F)(F)F)c(Cl)cc3O)o2)C1 [Example 50, N-(1-Acryloylazetidin-3-yl)-5-(((4-chloro-2-hydroxy-5-(trifluoromethyl)phenyl)amino)methyl)furan-2-carboxamide] | 3140 | D (20% or more and less than 40%)
3 | C=CC(=O)N1CC(NC(=O)c2cnc(CNc3cc(C(C)C(F)(F)F)c(Cl)cc3O)n2C)C1 (centres unmarked) [Example 59, N-(1-Acryloylazetidin-3-yl)-2-(((4-chloro-2-hydroxy-5-(1,1,1-trifluoropropan-2-yl)phenyl)amino)methyl)-1-methyl-1H-imidazole-5-carboxamide] | 140 | B (60% or more and less than 80%)
4 | C=CC(=O)N1CC(NC(=O)c2ccc(CNc3cc(C(C)(C)C)c(Cl)cc3O)s2)C1 [Example 7, N-(1-Acryloylazetidin-3-yl)-5-(((5-(tert-butyl)-4-chloro-2-hydroxyphenyl)amino)methyl)thiophene-2-carboxamide] | 1510 | A (80% or more)
5 | C=CC(=O)N1CC(NC(=O)c2cnc(CNc3cc([Si](C)(C)C)c(Cl)cc3O)n2C)C1 [Example 62, N-(1-Acryloylazetidin-3-yl)-2-(((4-chloro-2-hydroxy-5-(trimethylsilyl)phenyl)amino)methyl)-1-methyl-1H-imidazole-5-carboxamide] | 11 | A (80% or more)
6 | C=CC(=O)N1CC(NC(=O)c2ccc(CNc3cc(C(C)(C)C)c(C#N)cc3O)o2)C1 [Example 67, N-(1-Acryloylazetidin-3-yl)-5-(((5-(tert-butyl)-4-cyano-2-hydroxyphenyl)amino)methyl)furan-2-carboxamide] | 1030 | C (40% or more and less than 60%)
7 | C=CC(=O)N1CC(NC(=O)c2ccc(CNc3cc(C(=C)C)c(Cl)cc3O)o2)C1 [Example 47, N-(1-Acryloylazetidin-3-yl)-5-(((4-chloro-2-hydroxy-5-(prop-1-en-2-yl)phenyl)amino)methyl)furan-2-carboxamide] | 4740 | D (20% or more and less than 40%)
8 | C=CC(=O)N1CC(NC(=O)c2ccc(CNc3cc(C4CC4(F)F)c(Cl)cc3O)o2)C1 (centres unmarked) [Example 51, N-(1-Acryloylazetidin-3-yl)-5-(((4-chloro-5-(2,2-difluorocyclopropyl)-2-hydroxyphenyl)amino)methyl)furan-2-carboxamide] | 763 | C (40% or more and less than 60%)
9 | C=CC(=O)N1CC(NC(=O)c2cnc(C(O)c3cc(C(C)(C)C)c(Cl)cc3O)n2C)C1 (centres unmarked) [Example 98, N-(1-Acryloylazetidin-3-yl)-2-((5-(tert-butyl)-4-chloro-2-hydroxyphenyl) (hydroxy)methyl)-1-methyl-1H-imidazole-5-carboxamide] | 205 | B (60% or more and less than 80%)
10 | C=CC(=O)N1CC(NC(=O)c2coc(CNc3cc(C(C)(C)C)c(Cl)cc3O)n2)C1 [Example 13, N-(1-Acryloylazetidin-3-yl)-2-(((5-(tert-butyl)-4-chloro-2-hydroxyphenyl)amino)methyl)oxazole-4-carboxamide] | 735 | A (80% or more)
11 | C=CC(=O)N1CC(NC(=O)c2cnc(CNc3cc(C(C)(C)C)c(C=C)cc3O)n2C)C1 [Example 69, N-(1-Acryloylazetidin-3-yl)-2-(((5-(tert-butyl)-2-hydroxy-4-vinylphenyl)amino)methyl)-1-methyl-1H-imidazole-5-carboxamide] | 89 | B (60% or more and less than 80%)
12 | C=CC(=O)N1CC(NC(=O)c2sc(Cc3cc(C(C)(C)C)c(Cl)cc3O)nc2C)C1 [Example 95, N-(1-Acryloylazetidin-3-yl)-2-(5-(tert-butyl)-4-chloro-2-hydroxybenzyl)-4-methylthiazole-5-carboxamide] | 467 | C (40% or more and less than 60%)
13 | C=CC(=O)N1CC(NC(=O)c2c(C)nc(Cc3cc(C(C)(C)C)c(F)cc3O)n2C)C1 [Example 94, N-(1-Acryloylazetidin-3-yl)-2-(5-(tert-butyl)-4-fluoro-2-hydroxybenzyl)-1,4-dimethyl-1H-imidazole-5-carboxamide] | 170 | C (40% or more and less than 60%)
14 | C=CC(=O)N1CC(NC(=O)c2c(C)nc(CNc3cc4c(cc3O)CCC4(C)C)n2C)C1 [Example 72, N-(1-Acryloylazetidin-3-yl)-2-(((6-hydroxy-3,3-dimethyl-2,3-dihydro-1H-inden-5-yl)amino)methyl)-1,4-dimethyl-1H-imidazole-5-carboxamide] | 164 | A (80% or more)
15 | C=CC(=O)N1CC(NC(=O)c2c(C)nc(C(O)c3cc(C(C)(C)C)c(F)cc3O)n2C)C1 (centres unmarked) [Example 93, N-(1-Acryloylazetidin-3-yl)-2-((5-(tert-butyl)-4-fluoro-2-hydroxyphenyl) (hydroxy)methyl)-1,4-dimethyl-1H-imidazole-5-carboxamide] | 500 | E (less than 20%)
16 | C=CC(=O)N1CC(NC(=O)c2cnc(CNc3cc(C(C)C)c(Cl)cc3O)n2C)C1 [Example 60, N-(1-Acryloylazetidin-3-yl)-2-(((4-chloro-2-hydroxy-5-isopropylphenyl)amino)methyl)-1-methyl-1H-imidazole-5-carboxamide] | 37 | A (80% or more)
